Experimental data reported in the NIST ThermoML archive (doi:10.1016/j.jct.2015.02.011).
± gives the expanded uncertainty stated by the source.

Experiments:
[1] = refractive index (Na D-line) (dimensionless); conditions: 100.7 kPa, Liquid, Standard Abbe refractometry
[2] = 100.7 kPa, Liquid; for speed of sound: Frequency=3 MHz, Sing-around technique in a fixed-path interferometer; for mass density: Vibrating tube method
[3] = refractive index (Na D-line) (dimensionless); xn = mol fraction of the nth substance listed; conditions: 100.7 kPa, Liquid, Standard Abbe refractometry, x2 = 0
[4] = xn = mol fraction of the nth substance listed; conditions: 100.7 kPa, Liquid, x2 = 0; for speed of sound: Frequency=3 MHz, Sing-around technique in a fixed-path interferometer; for mass density: Vibrating tube method

C1CCOC1 [tetrahydrofuran]
Conditions | mass density, [2] [kg/m3] | refractive index, [1] | speed of sound, [2] [m/s]
293.15 K | 888.766 ± 1.6 | 1.40696 ± 0.0016 | 1305 ± 2.3
298.15 K | 883.297 ± 1.6 | 1.4042 ± 0.0016 | 1280.8 ± 2.2
303.15 K | 877.809 ± 1.6 | 1.40157 ± 0.0016 | 1256.8 ± 2.2
308.15 K | 872.279 ± 1.6 | 1.39885 ± 0.0016 | 1232.9 ± 2.2
313.15 K | 866.713 ± 1.6 | 1.39623 ± 0.0016 | 1209.2 ± 2.2
318.15 K | 861.106 ± 1.6 | 1.39349 ± 0.0016 | 1185.7 ± 2.2
323.15 K | 855.456 ± 1.6 | 1.39083 ± 0.0016 | 1162.3 ± 2.2

CCCCCCn1cc[n+](C)c1.F[P-](F)(F)(F)(F)F [1-hexyl-3-methylimidazolium hexafluorophosphate]
Conditions | mass density, [2] [kg/m3] | refractive index, [1] | speed of sound, [2] [m/s]
293.15 K | 1296.72 ± 2.1 | 1.41958 ± 0.0017 | 1437.7 ± 2.9
298.15 K | 1292.62 ± 2.1 | 1.41832 ± 0.0017 | 1424.3 ± 2.9
303.15 K | 1288.61 ± 2.1 | 1.41692 ± 0.0017 | 1411.5 ± 2.9
308.15 K | 1284.72 ± 2.1 | 1.41564 ± 0.0017 | 1399 ± 2.9
313.15 K | 1280.82 ± 2.1 | 1.41422 ± 0.0017 | 1386.9 ± 2.9
318.15 K | 1276.37 ± 2.1 | 1.41306 ± 0.0017 | 1375 ± 2.9
323.15 K | 1272.45 ± 2.1 | 1.41175 ± 0.0017 | 1363.3 ± 2.9

C1CCOC1 [tetrahydrofuran] + CCCCCCn1cc[n+](C)c1.F[P-](F)(F)(F)(F)F
Conditions | mass density, [4] [kg/m3] | refractive index, [3] | speed of sound, [4] [m/s]
293.15 K | 888.766 ± 1.6 | 1.40696 ± 0.0016 | 1305 ± 2.3
298.15 K | 883.297 ± 1.6 | 1.4042 ± 0.0016 | 1280.8 ± 2.2
303.15 K | 877.809 ± 1.6 | 1.40157 ± 0.0016 | 1256.8 ± 2.2
308.15 K | 872.279 ± 1.6 | 1.39885 ± 0.0016 | 1232.9 ± 2.2
313.15 K | 866.713 ± 1.6 | 1.39623 ± 0.0016 | 1209.2 ± 2.2
318.15 K | 861.106 ± 1.6 | 1.39349 ± 0.0016 | 1185.7 ± 2.2
323.15 K | 855.456 ± 1.6 | 1.39083 ± 0.0016 | 1162.3 ± 2.2

C1CCOC1 [tetrahydrofuran] + CCCCCCCC[n+]1ccn(C)c1.F[P-](F)(F)(F)(F)F
Conditions | mass density, [4] [kg/m3] | refractive index, [3] | speed of sound, [4] [m/s]
293.15 K | 888.766 ± 1.6 | 1.40696 ± 0.0016 | 1305 ± 2.3
298.15 K | 883.297 ± 1.6 | 1.4042 ± 0.0016 | 1280.8 ± 2.2
303.15 K | 877.809 ± 1.6 | 1.40157 ± 0.0016 | 1256.8 ± 2.2
308.15 K | 872.279 ± 1.6 | 1.39885 ± 0.0016 | 1232.9 ± 2.2
313.15 K | 866.713 ± 1.6 | 1.39623 ± 0.0016 | 1209.2 ± 2.2
318.15 K | 861.106 ± 1.6 | 1.39349 ± 0.0016 | 1185.7 ± 2.2
323.15 K | 855.456 ± 1.6 | 1.39083 ± 0.0016 | 1162.3 ± 2.2

CCCCn1cc[n+](C)c1.F[P-](F)(F)(F)(F)F [1-butyl-3-methylimidazolium hexafluorophosphate]
Conditions | mass density, [2] [kg/m3] | refractive index, [1] | speed of sound, [2] [m/s]
293.15 K | 1370.41 ± 2.2 | 1.41068 ± 0.0017 | 1454.6 ± 2.9
298.15 K | 1366.26 ± 2.2 | 1.40943 ± 0.0017 | 1442.3 ± 2.9
303.15 K | 1362.13 ± 2.2 | 1.40818 ± 0.0017 | 1430.2 ± 2.9
308.15 K | 1357.86 ± 2.2 | 1.40693 ± 0.0017 | 1418.4 ± 2.9
313.15 K | 1353.88 ± 2.2 | 1.40567 ± 0.0017 | 1406.7 ± 2.9
318.15 K | 1349.88 ± 2.2 | 1.40443 ± 0.0017 | 1395.2 ± 2.9
323.15 K | 1345.57 ± 2.2 | 1.40312 ± 0.0017 | 1384.1 ± 2.9

CCCCCCCC[n+]1ccn(C)c1.F[P-](F)(F)(F)(F)F [1-octyl-3-methylimidazolium hexafluorophosphate]
Conditions | mass density, [2] [kg/m3] | refractive index, [1] | speed of sound, [2] [m/s]
293.15 K | 1238.77 ± 2 | 1.42441 ± 0.0017 | 1421.2 ± 2.9
298.15 K | 1234.79 ± 2 | 1.42312 ± 0.0017 | 1406.5 ± 2.9
303.15 K | 1230.84 ± 2 | 1.42171 ± 0.0017 | 1392.4 ± 2.9
308.15 K | 1227.09 ± 2 | 1.42029 ± 0.0017 | 1379 ± 2.9
313.15 K | 1223.3 ± 2 | 1.41888 ± 0.0017 | 1365.8 ± 2.9
318.15 K | 1219.5 ± 2 | 1.4175 ± 0.0017 | 1351.2 ± 2.9
323.15 K | 1215.42 ± 2 | 1.41601 ± 0.0017 | 1338 ± 2.9

C1CCOC1 [tetrahydrofuran] + CCCCn1cc[n+](C)c1.F[P-](F)(F)(F)(F)F
Conditions | mass density, [4] [kg/m3] | refractive index, [3] | speed of sound, [4] [m/s]
293.15 K | 888.766 ± 1.6 | 1.40696 ± 0.0016 | 1305 ± 2.3
298.15 K | 883.297 ± 1.6 | 1.4042 ± 0.0016 | 1280.8 ± 2.2
303.15 K | 877.809 ± 1.6 | 1.40157 ± 0.0016 | 1256.8 ± 2.2
308.15 K | 872.279 ± 1.6 | 1.39885 ± 0.0016 | 1232.9 ± 2.2
313.15 K | 866.713 ± 1.6 | 1.39623 ± 0.0016 | 1209.2 ± 2.2
318.15 K | 861.106 ± 1.6 | 1.39349 ± 0.0016 | 1185.7 ± 2.2
323.15 K | 855.456 ± 1.6 | 1.39083 ± 0.0016 | 1162.3 ± 2.2
